In patent publication EP4219453A1 (Sichuan Kelun-Biotech Biopharmaceutical Co., Ltd., priority 2020, dated 2022):

Tests used:
TGFβR2 = TGFβR2 (Homo sapiens, UniProt P37173); experiment: In vitro enzymatic activity inhibition test (TGFβR2), ADP-Glo Kinase Detection Kit; type: biochemical; conditions: MBP substrate, calculated from percent inhibition at 1000nM, 100nM, 10nM
Method: Test Example 2: In vitro enzymatic activity inhibition test (TGFβR2).
(§1) Experimental method: According to the instructions of ADP-Glo™ Kinase Detection Kit (Promega), the inhibitory effect of the compounds of the present invention on the enzymatic activity of TGFβR2 was determined, and the steps were as follows: TGFβR2 enzyme were pre-incubated with different concentrations of test compounds (1000nM, 100nM, 10nM) at 30°C for 30 min, myelin basic protein (MBP) and adenosine triphosphate (ATP) were added to initiate the reaction. The incubation was performed at 30°C for 3 h, followed by an addition of ADP-Glo™ reagent and incubated at room temperature for 90 min, kinase detection reagent was then added. The chemiluminescence signal values were detected after incubation at room temperature for another 30 min.
(§2) When the percent inhibition was between 30% and 80%, the median inhibitory concentration (IC50) or range of the compound was calculated according to the following formula: IC50 = X × (1 - percent inhibition rate (%)) / percent inhibition rate (%), wherein X is the concentration of the compound at which the inhibition rate is between 30% and 80%.

TGFβR1 = target: T1, TGFβR1 (Homo sapiens, UniProt P36897); experiment: In vitro enzymatic activity inhibition test (TGFβR1), ADP-Glo Kinase Detection Kit; type: biochemical; conditions: calculated from percent inhibition at 1000 nM, 100 nM, 10 nM
T1 sequence (P36897 34-503): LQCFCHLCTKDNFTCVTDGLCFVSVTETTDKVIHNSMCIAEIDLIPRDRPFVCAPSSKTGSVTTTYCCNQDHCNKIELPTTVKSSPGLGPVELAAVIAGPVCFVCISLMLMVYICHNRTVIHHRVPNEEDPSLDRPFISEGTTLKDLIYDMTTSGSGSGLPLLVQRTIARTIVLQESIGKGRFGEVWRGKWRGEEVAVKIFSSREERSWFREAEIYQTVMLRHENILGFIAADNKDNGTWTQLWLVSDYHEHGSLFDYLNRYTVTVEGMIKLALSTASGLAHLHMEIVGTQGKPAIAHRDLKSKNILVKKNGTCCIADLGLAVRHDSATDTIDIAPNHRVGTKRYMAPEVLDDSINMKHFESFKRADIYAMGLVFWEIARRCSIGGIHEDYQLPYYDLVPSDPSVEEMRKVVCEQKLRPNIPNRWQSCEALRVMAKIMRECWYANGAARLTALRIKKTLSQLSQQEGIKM
Method: Test Example 1: In vitro enzymatic activity inhibition test (TGFβR1).
as §1, with “TGFβR1” for “TGFβR2”, “(1000 nM, 100 nM, 10 nM)” for “(1000nM, 100nM, 10nM)”, “TGFβR1 peptide” for “myelin basic protein (MBP)”, “Chemiluminescence” for “The chemiluminescence”
as §2, with “percent inhibition rate was between” for “percent inhibition was between”

[1] = system: TGFβ/Smads signaling pathway in HEK293-SBE cells; experiment: In vitro cell activity inhibition test, Bright-Glo luciferase reporter in HEK293-SBE cells; type: cell-based; conditions: TGFβ 0.5 ng/ml, luciferase reporter gene method
Method: Test Example 3: In vitro cell activity inhibition test
Experimental method: According to the instructions of Bright-Glo™ luciferase detection kit (Promega), the inhibitory effect of the compounds of the present invention on TGFβ/Smads signaling pathway in HEK293-SBE cells was determined. The steps were as follows: HEK293-SBE cells (Bps bioscience) were added to a 96-well plate (10% FBS medium), 30,000/well, and cultured overnight at 37°C and 5% CO2. The medium was changed to 0.5% FBS medium, and the test compound diluted in 0.5% FBS medium was added. The highest final concentration of the test compound was 10 µM with 4-fold dilution, and a total of 8 concentration gradients. After 4-5 hours of incubation, 10 µl of TGFβ was added. The final concentration of TGFβ was 0.5 ng/ml. 10 µl of medium added in replace of TGFβ was the negative control. In the blank control, no test compound was added, and TGFβ was added. Bright Glo reagent was added to each well, and the chemiluminescence signal value was read on a microplate reader.
The percent inhibition rates of the test compound at different concentrations were plotted against the compound concentrations, the curve was fitted according to the four-parameter model, and the IC50 value was calculated by the following formula: y = Min + (Max - Min) / (1 + (x / IC50) ^ (-Hillslope)), wherein: y is percentage inhibition rate; Max and Min are the maximum and minimum values of the fitted curve, respectively; x is the logarithmic concentration of compound; and Hillslope is the slope of the curve.

Sequence of TGFβR2 (P37173 23-567): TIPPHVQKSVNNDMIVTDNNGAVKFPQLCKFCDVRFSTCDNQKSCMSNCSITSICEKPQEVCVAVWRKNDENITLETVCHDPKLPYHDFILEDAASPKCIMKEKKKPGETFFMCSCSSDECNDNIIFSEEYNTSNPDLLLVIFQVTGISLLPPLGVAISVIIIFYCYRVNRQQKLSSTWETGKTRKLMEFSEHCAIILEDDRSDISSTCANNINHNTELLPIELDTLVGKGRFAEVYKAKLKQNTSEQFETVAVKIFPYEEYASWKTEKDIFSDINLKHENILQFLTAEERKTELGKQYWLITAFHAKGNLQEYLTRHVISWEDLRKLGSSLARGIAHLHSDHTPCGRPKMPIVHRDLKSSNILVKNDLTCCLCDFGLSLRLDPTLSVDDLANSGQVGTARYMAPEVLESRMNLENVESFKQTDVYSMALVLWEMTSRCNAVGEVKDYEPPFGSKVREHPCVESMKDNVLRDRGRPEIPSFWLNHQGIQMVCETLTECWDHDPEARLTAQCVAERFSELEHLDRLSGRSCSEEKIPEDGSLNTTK

| Structure (SMILES) | IC50 (TGFβR2) [nM] | IC50 (TGFβR1) [nM] | IC50 [1] [nM] |
| --- | --- | --- | --- |
| Cc1cccc(-n2nccc2-c2ccn3ncnc3c2)n1 [Example 2, 7-(1-(6-methylpyridin-2-yl)-1H-pyrazol-5-yl)-[1,2,4]triazolo[1,5-a]pyridine] | > 1000 | 9.83 ± 4.79 |  |
| Cc1cccc(-n2nccc2-c2ccn3nccc3c2)n1 [Example 3, 5-(1-(6-methylpyridin-2-yl)-1H-pyrazol-5-yl) pyrazolo[1,5-a]pyridine] | > 1000 | 43.8 ± 6.08 | 29.1 ± 2.5 |
| Cc1cc(CNc2cc(-c3ccc4ncsc4c3)n(-c3cccc(C)n3)n2)ccn1 [Example 9, 5-(benzo[d]thiazol-6-yl)-1-(6-methylpyridin-2-yl)-N-((2-methylpyridin-4-yl)methyl)-1H-pyrazol-3-amine] |  | 27.4 ± 4.89 | 43.2 ± 2.54 |
